Test results taken from PMC7377239, “Cardiovascular Effects of Polychlorinated Biphenyls and Their Major Metabolites” (Environmental Health Perspectives, 2020).
Structures can show the parent of a compound that is named as a salt. Where two headings read alike, the source gives them in different places.

Test system: HUVECs
Assay: Tube formation (tubulogenesis) assay in HUVECs, 18 h
Format: cell-based, human
Details: Homo sapiens, HUVEC, 18 h; for activity at 0.1 µM: 0.10 µM
Method: Similar to the cultivation of iCell®-endothelial cells, HUVEC maintenance and experimentation are detailed elsewhere ([Iwata et al. 2017]). Briefly, HUVECs were thawed, seeded, and grown in T75 tissue culture flasks in Medium 199 with EGM™-2 BulletKits™. HUVECs were incubated at regular cell culture conditions, 37°C and 5% CO2 , and passaged every 2–3 d using TrypLE™ Express. To ensure adequate endothelial function, experiments were performed with cells between passages 1 and 5.
Tube formation assays were performed on Geltrex™ LDEV-free reduced growth factor basement membrane using both iCell®-endothelial cells and HUVECs in 384-well format exactly as detailed in Iwata et al. ([2017]). Negative controls included media-only and vehicle control (i.e., 0.5% vol/vol DMSO in cell culture media) wells. Positive assay controls were consistent with previously published reports ([Iwata et al. 2017]) and included TAB ( 50μM ) as a cytotoxic control, and nocodazole ( 0.01–1μM ), suramin ( 0.5–50μM ), histamine ( 0.1–100μM ), and chloroquine ( 1–500μM ) as chemicals associated with specific effects on ECs. Each test chemical was screened in triplicate for each concentration. Briefly, for iCell®-endothelial cells, starvation media consisted of VascuLife® basal medium with 4 mM L-glutamine LifeFactor and 0.1% iCell®-endothelial cells medium supplement. To counter dilution effects, a 2× concentration of the HUVEC maintenance medium supplemented with additional VEGF was created (EGM™-2 BulletKits™ at 2× concentration; also the VEGF component was replaced with 12.5 ng/mL VEGF). Geltrex™ LDEV-free reduced growth factor basement membrane was thawed overnight and dispensed into 384-well plates ( 10μL/well ) with tapping and rotating to evenly coat. The plates were incubated for 1 h in a cell culture incubator at 37°C and 5% CO2 . A 2× PCB plate (containing all of the PCBs and metabolites in dose–response) was prepared in basal media and added, 25μL per well, to the Geltrex™ coated plates. On separate plates, cells were seeded 7,500 (iPSC- ECs) or 3,500 (HUVEC) cells/well. Cells were exposed to chemicals overnight at 37°C and 5% CO2 and stained with 3× concentration of calcein AM ( 25μL /well, 6μmol/L ) for 15 min before imaging. Images were captured at 4× magnification with the FITC filter (calcein AM). Images were analyzed with the angiogenesis module software within MetaXpress™ (Molecular Devices).
Phenotypic responses were quantitatively assessed using concentration–response modeling as detailed elsewhere ([Sirenko et al. 2017]). Briefly, phenotypic readouts were normalized to vehicle controls and fit to a four-parameter logistic model in R studio software (version 3.1.1; R Development Core Team). Following EPA guidance on dose–response modeling, a cutoff of one standard deviation across means of vehicle control (i.e., 0.5% vol/vol DMSO in cell culture media) wells was applied to determine the point-of-departure (POD) values ([U.S. EPA 2012]). In the absence of a concentration–response, the highest tested concentration (i.e., 100μM ) was assigned as “no observable adverse effect level.” The concentration–response assessment R script, as well as templates for vehicle and concentration–response data, are available as a supplement to Sirenko et al. ([2017]). The ability of physicochemical properties to predict differences in PODs were evaluated by multiregression and mixed-effects modeling using R.

[1] = HUVECs, 0.00 µM = 100.00, read-out: huvec.mtl.18hr
[2] = HUVECs, 0.00 µM = 100.00, read-out: huvec.tlps.18hr
[3] = HUVECs, 0.00 µM = 100.00, read-out: huvec.tta.18hr
[4] = HUVECs, 0.00 µM = 100.00, read-out: huvec.ttl.18hr
[5] = HUVECs, top concentration 100.00 µM, read-out: huvec.mtl.18hr POD
[6] = HUVECs, top concentration 100.00 µM, read-out: huvec.tlps.18hr POD
[7] = HUVECs, top concentration 100.00 µM, read-out: huvec.tta.18hr POD
[8] = HUVECs, top concentration 100.00 µM, read-out: huvec.ttl.18hr POD
[9] = tube formation mtl, read-out: POD huvec.mtl.18hr
[10] = tube formation tlps, read-out: POD huvec.tlps.18hr
[11] = tube formation tta, read-out: POD huvec.tta.18hr
[12] = tube formation ttl, read-out: POD huvec.ttl.18hr

Row | SMILES | activity at 0.01 µM [1] [%] | activity at 0.01 µM [2] [%] | activity at 0.01 µM [3] [%] | activity at 0.01 µM [4] [%] | activity at 0.1 µM [1] [%] | activity at 0.1 µM [2] [%] | activity at 0.1 µM [3] [%] | activity at 0.1 µM [4] [%] | activity at 1 µM [1] [%] | activity at 1 µM [2] [%] | activity at 1 µM [3] [%] | activity at 1 µM [4] [%] | activity at 10 µM [1] [%] | activity at 10 µM [2] [%] | activity at 10 µM [3] [%] | activity at 10 µM [4] [%] | minimal effective concentration [9] [µM] | minimal effective concentration [10] [µM] | minimal effective concentration [11] [µM] | minimal effective concentration [12] [µM] | further results
1 | Oc1ccccc1-c1ccc(Cl)cc1 [2'-OH PCB3] | 96 | 85.8 | 84 | 89.1 | 77.3 | 49.3 | 42.9 | 47.4 | 95.4 | 65 | 71.9 | 75 | 92.4 | 77.5 | 65.8 | 69.6 | – | – | – | – | activity at 100 µM [1]: 73.9%; activity at 100 µM [2]: 35.5%; activity at 100 µM [3]: 64%; activity at 100 µM [4]: 49.6%; minimal effective concentration [5]: 100 µM; minimal effective concentration [6]: 0.57 µM; minimal effective concentration [7]: 100 µM; minimal effective concentration [8]: 100 µM
2 | O=C1C=CC(=O)C(c2ccc(Cl)cc2)=C1 [4-Cl-BQ, 2-(4-Chlorophenyl)benzo-2,5-quinone] | 108 | 136 | 110 | 98.6 | 104 | 134 | 99.2 | 97.1 | 92.4 | 139 | 71 | 68.3 | 57.7 | 26.2 | 36.4 | 40 | 1.18 | 5.25 | 0.65 | 0.25 | activity at 100 µM [1]: 55.2%; activity at 100 µM [2]: 14.3%; activity at 100 µM [3]: 8.95%; activity at 100 µM [4]: 11.6%; minimal effective concentration [5]: 1.18 µM; minimal effective concentration [6]: 5.25 µM; minimal effective concentration [7]: 0.65 µM; minimal effective concentration [8]: 0.25 µM
3 | COc1cc(Cl)c(-c2cc(Cl)ccc2Cl)cc1Cl [4-OMe-PCB 52, 4-methoxy-2,2′,5,5′-tetrachlorobiphenyl] | – | – | – | – | – | – | – | – | – | – | – | – | – | – | – | – | 17.1 | 14.2 | 100 | 100 | –
4 | COc1ccc(-c2ccc(Cl)cc2)cc1 [4'-OMe-PCB 3, 4′-methoxy-4-chlorobiphenyl] | – | – | – | – | – | – | – | – | – | – | – | – | – | – | – | – | 7.13 | 49.5 | 8.82 | 7.82 | –
5 | Clc1ccc(-c2cc(Cl)c(Cl)c(Cl)c2)cc1Cl [PCB 126, 3,3′,4,4′,5-pentachlorobiphenyl] | – | – | – | – | – | – | – | – | – | – | – | – | – | – | – | – | 100 | 100 | 100 | 100 | –
6 | Oc1ccc(O)c(-c2ccc(Cl)cc2)c1 [2',5'-diOH-PCB 3, 4-Chloro-2′,5′-dihydroxybiphenyl] | – | – | – | – | – | – | – | – | – | – | – | – | – | – | – | – | 1.26 | 1.55 | 1.39 | 1.23 | –
7 | O=S(=O)(O)Oc1ccc(-c2cccc(Cl)c2)cc1Cl [4-yl PCB 11 sulfate] | 96.8 | 110 | 98.3 | 87.1 | 112 | 133 | 109 | 98.7 | 108 | 110 | 123 | 113 | 95 | 103 | 84.6 | 77 | – | – | – | – | activity at 100 µM [1]: 52.2%; activity at 100 µM [2]: 35.8%; activity at 100 µM [3]: 50.9%; activity at 100 µM [4]: 56.1%; minimal effective concentration [5]: 14.3 µM; minimal effective concentration [6]: 27.2 µM; minimal effective concentration [7]: 100 µM; minimal effective concentration [8]: 100 µM
8 | Clc1ccc(-c2ccccc2)cc1 [PCB3] | 96.2 | 59.5 | 68 | 71.6 | 97.7 | 91.8 | 96.2 | 104 | 87 | 74.7 | 76.6 | 81.5 | 96.7 | 74.2 | 62 | 66.4 | – | – | – | – | activity at 100 µM [1]: 70.8%; activity at 100 µM [2]: 39.1%; activity at 100 µM [3]: 26%; activity at 100 µM [4]: 28%; minimal effective concentration [5]: 25.3 µM; minimal effective concentration [6]: 100 µM; minimal effective concentration [7]: 0.67 µM; minimal effective concentration [8]: 0.7 µM
9 | Oc1ccccc1-c1ccc(Cl)cc1 [2'-OH-PCB 3] | – | – | – | – | – | – | – | – | – | – | – | – | – | – | – | – | 100 | 0.57 | 100 | 100 | –
